Read-outs that look alike come from different tables or passages of the source.
What was measured:
[1] = target: T1, human norepinephrine transporter (Homo sapiens, UniProt P23975); experiment: hNET receptor binding ([125I]-RTI-55 radioligand binding); conditions: membranes of HEK-293 cells transfected with human norepinephrine transporter, IC50 converted to Ki by Cheng-Prusoff
T1 construct: host or cells: HEK-293
From the text: (§1) The ability of the compounds of this invention to bind to the hNET and serotonin SERT receptor can be determined using conventional radiolig and receptor binding assays. The receptors can be heterologously expressed in cell lines and experiments conducted in membrane preparations from the cell lines using procedures outlined below. IC50 concentrations can be determined by nonlinear regression of concentration-dependent reduction in specific binding. The Cheng-Prussoff equation can be used to convert the IC50 to Ki concentrations.
Cell pastes of HEK-293 cells transfected with the human norepinephrine transporter were supplied by the Pfizer Ann Arbor Protein Expression and Production group. […] Aliquots of membranes (5 mg/ml protein) were stored in liquid nitrogen until used.
(§2) The reaction was incubated by gentle agitation for 90 min at room temperature and was terminated by filtration through Whatman GF/C filter plates using a Brandel 96-well plate harvester. […] Test compounds were run in duplicate, and specific binding was defined as the difference between binding in the presence and absence of 10 μM desipramine.
(§3) Excel and GraphPad Prism software were used for data calculation and analysis. IC50 values were converted to Ki values using the Cheng-Prusoff equation.

[2] = target: T2, human seritonin transporter (Homo sapiens, UniProt P31645); experiment: hSERT receptor binding ([125I]-RTI-55 radioligand binding); conditions: membranes of HEK-293 cells transfected with human seritonin transporter, IC50 converted to Ki by Cheng-Prusoff, read-out: SERT (Ki)
T2 construct: host or cells: HEK-293
T2 sequence (P31645 whole entry): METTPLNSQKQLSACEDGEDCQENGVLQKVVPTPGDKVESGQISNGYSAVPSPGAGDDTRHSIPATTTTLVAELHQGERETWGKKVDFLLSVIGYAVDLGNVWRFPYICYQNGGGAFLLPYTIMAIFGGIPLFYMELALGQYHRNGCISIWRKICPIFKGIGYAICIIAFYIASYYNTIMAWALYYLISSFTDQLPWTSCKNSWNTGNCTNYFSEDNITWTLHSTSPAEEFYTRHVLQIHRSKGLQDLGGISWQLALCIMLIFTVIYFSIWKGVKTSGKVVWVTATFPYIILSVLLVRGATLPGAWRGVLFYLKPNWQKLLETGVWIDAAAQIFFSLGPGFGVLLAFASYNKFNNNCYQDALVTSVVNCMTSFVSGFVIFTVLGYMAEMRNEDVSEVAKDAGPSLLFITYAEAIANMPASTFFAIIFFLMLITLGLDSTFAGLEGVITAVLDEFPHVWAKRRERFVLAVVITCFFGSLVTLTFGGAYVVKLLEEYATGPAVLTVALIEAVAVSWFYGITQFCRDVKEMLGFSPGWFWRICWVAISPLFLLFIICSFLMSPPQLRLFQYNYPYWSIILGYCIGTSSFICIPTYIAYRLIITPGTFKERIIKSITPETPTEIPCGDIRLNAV
From the text: as §1
Cell pastes of HEK-293 cells transfected with the human seritonin transporter were supplied by the Pfizer Ann Arbor Protein Expression and Production group. […] Aliquots of membranes (5 mg/ml protein) were stored in liquid nitrogen until used.
as §2, with “[…] citalopram.” for “μM desipramine.”
as §3

T1 sequence (P23975 whole entry): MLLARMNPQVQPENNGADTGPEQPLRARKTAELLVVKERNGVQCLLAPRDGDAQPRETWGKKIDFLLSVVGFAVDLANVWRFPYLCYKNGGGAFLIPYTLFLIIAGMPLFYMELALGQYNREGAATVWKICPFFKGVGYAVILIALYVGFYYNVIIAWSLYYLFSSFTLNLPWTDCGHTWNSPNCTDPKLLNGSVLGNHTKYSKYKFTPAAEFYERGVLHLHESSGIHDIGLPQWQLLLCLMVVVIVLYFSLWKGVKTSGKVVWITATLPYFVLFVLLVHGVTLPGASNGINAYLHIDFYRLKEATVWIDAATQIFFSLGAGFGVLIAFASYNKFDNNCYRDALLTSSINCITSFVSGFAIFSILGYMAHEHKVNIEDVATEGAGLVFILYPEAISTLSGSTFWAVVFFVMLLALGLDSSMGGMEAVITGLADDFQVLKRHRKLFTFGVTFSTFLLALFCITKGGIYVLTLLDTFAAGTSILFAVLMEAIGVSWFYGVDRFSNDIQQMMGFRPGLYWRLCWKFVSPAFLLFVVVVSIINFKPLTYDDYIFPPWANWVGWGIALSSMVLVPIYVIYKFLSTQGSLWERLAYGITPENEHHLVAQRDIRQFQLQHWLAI

| Ki ([1]; read-out: hNET (Ki)) | Ki [2] | Compound | Ki ([1]; hNET (Ki)) |
| --- | --- | --- | --- |
| 61 nM | ≥ 10000 nM | c1ccc(Oc2ccccc2O[C@@H](c2ccccc2)[C@@H]2CNCCO2)cc1 [Example 14, (S)-2-[(S)-(2-Phenoxy-phenoxy)-phenyl-methyl]-morpholine] | – |
| 15 nM | 3770 nM | CCOC(=O)c1ccccc1O[C@@H](c1ccccc1)[C@@H]1CNCCO1 [Example 15, (2S,3S)-2-(Morpholin-2-yl-phenyl-methoxy)-benzoic acid ethyl ester] | – |
| 133 nM | 72 nM | Fc1ccccc1O[C@@H](c1ccccc1)[C@H]1CNCCO1 [Example 18, (R)-2-[(S)-(2-Fluoro-phenoxy)-phenyl-methyl]-morpholine] | – |
| 3.7 nM | 475 nM | C=CCc1ccccc1O[C@@H](c1ccccc1)[C@@H]1CNCCO1 [Example 39, (S)-2-[(S)-(2-Allyl-phenoxy)-phenyl-methyl]-morpholine] | – |
| 17 nM | 17 nM | Brc1ncccc1O[C@@H](c1ccccc1)[C@@H]1CNCCO1 [Example 41, (S)-2-[(S)-(2-Bromo-pyridin-3-yloxy)-phenyl-methyl]-morpholine] | – |
| 5.3 nM | 1360 nM | CC(C)c1ccccc1O[C@@H](c1ccccc1)[C@@H]1CNCCO1 [Example 44, (S)-2-[(S)-(2-Isopropyl-phenoxy)-phenyl-methyl]-morpholine] | – |
| 6.5 nM | 5630 nM | CC(C)Oc1ccccc1O[C@@H](c1ccccc1)[C@@H]1CNCCO1 [Example 46, (S)-2-[(S)-(2-Isopropoxy-phenoxy)-phenyl-methyl]-morpholine] | – |
| 8.9 nM | 729 nM | Cc1ccccc1O[C@@H](c1ccccc1)[C@@H]1CNCCO1 [Example 49, (S)-2-((S)-Phenyl-o-tolyloxy-methyl)-morpholine] | – |
| 5.9 nM | 259 nM | CSc1ccccc1O[C@@H](c1ccccc1)[C@@H]1CNCCO1 [Example 53, (S)-2-[(S)-(2-Methylsulfanyl-phenoxy)-phenyl-methyl]-morpholine] | – |
| 1310 nM | ≥ 10000 nM | CS(=O)(=O)c1ccccc1O[C@@H](c1ccccc1)[C@@H]1CNCCO1 [Example 54, (S)-2-[(S)-(2-Methanesulfonyl-phenoxy)-phenyl-methyl]-morpholine] | – |
| 24 nM | 94 nM | FC(F)Oc1ccccc1O[C@@H](c1ccccc1)[C@@H]1CNCCO1 [Example 57, (S)-2-[(S)-(2-Difluoromethoxy-phenoxy)-phenyl-methyl]-morpholine] | – |
| 7.4 nM | 965 nM | FCCOc1ccccc1O[C@@H](c1ccccc1)[C@@H]1CNCCO1 [Example 58, (S)-2-{(S)-[2-(2-Fluoro-ethoxy)-phenoxy]-phenyl-methyl}-morpholine] | – |
| 68 nM | 6600 nM | c1ccc([C@H](Oc2ccccc2CC2CC2)[C@@H]2CNCCO2)cc1 [Example 61, (S)-2-[(S)-(2-Cyclopropylmethyl-phenoxy)-phenyl-methyl]-morpholine] | – |

Second part, the compound before the results:

| Compound | Ki ([1]; read-out: hNET (Ki)) | Ki [2] | Ki ([1]; hNET (Ki)) |
| --- | --- | --- | --- |
| Clc1ccc(-c2ccccc2O[C@@H](c2ccccc2)[C@@H]2CNCCO2)cc1 [Example 16, (S)-2-[((S)-4′-Chloro-biphenyl-2-yloxy)-phenyl-methyl]-morpholine] | 99 nM | 4500 nM | – |
| CCOc1ccccc1O[C@H](c1ccccn1)[C@@H]1CNCCO1 [Example 20, (S)-2-[(R)-(2-Ethoxy-phenoxy)-pyridin-2-yl-methyl]-morpholine] | 593 nM | ≥ 10000 nM | – |
| CCOc1ccccc1O[C@@H](c1ccccn1)[C@@H]1CNCCO1 [Example 21, (S)-2-[(S)-(2-Ethoxy-phenoxy)-pyridin-2-yl-methyl]-morpholine] | 6.8 nM | 2500 nM | – |
| N#Cc1ccccc1OC(c1cccnc1)[C@@H]1CNCCO1 (stereo partly drawn) [Example 24, (2S,3R)-2-(Morpholin-2-yl-pyridin-3-yl-methoxy)-benzonitrile] | 210 nM | 7720 nM | – |
| FC(F)(F)Oc1ccccc1O[C@@H](c1cccnc1)[C@H]1CNCCO1 [Example 26, (R)-2-[(S)-Pyridin-3-yl-(2-trifluoromethoxy-phenoxy)-methyl]-morpholine] | 359 nM | 2440 nM | – |
| Fc1ccc(O[C@H](c2ccccn2)[C@H]2CNCCO2)c(F)c1 [Example 27] | 7900 nM | 412 nM | – |
| Fc1ccc(O[C@@H](c2ccccn2)[C@H]2CNCCO2)c(F)c1 [Example 28] | 8410 nM | 1410 nM | – |
| [O-][n+]1ccccc1O[C@@H](c1ccccc1)[C@@H]1CNCCO1 [Example 29, (S)-2-[((S)-1-Oxy-pyridin-2-yloxy)-phenyl-methyl]-morpholine] | 154 nM | ≥ 10000 nM | – |
| Clc1ccccc1-c1ccccc1O[C@@H](c1ccccc1)[C@@H]1CNCCO1 [Example 30, (S)-2-[(S)-(2′-Chloro-biphenyl-2-yloxy)-phenyl-methyl]-morpholine] | 41 nM | ≥ 10000 nM | – |
| Fc1ccc(Oc2ncccc2OC[C@@H]2CNCCO2)cc1 [Example 32, (S)-2-[2-(4-Fluoro-phenoxy)-pyridin-3-yloxymethyl]-morpholine] | 36 nM | ≥ 10000 nM | – |
| Fc1ccc(-c2ncccc2O[C@@H](c2ccccc2)[C@@H]2CNCCO2)cc1 [Example 33, (S)-2-{(S)-[2-(4-Fluoro-phenyl)-pyridin-3-yloxy]-phenyl-methyl}-morpholine] | 22 nM | 2410 nM | – |
| Fc1ccc([C@H](Oc2ccccc2F)[C@H]2CNCCO2)cc1 [Example 34, (R)-2-[(S)-(2-Fluoro-phenoxy)-(4-fluoro-phenyl)-methyl]-morpholine] | 141 nM | 184 nM | – |
| CCOc1ccccc1OC(c1ccc(F)cc1)[C@H]1CNCCO1 (some centres unmarked) [Example 35] | 11 nM | 605 nM | – |
| Fc1cccc(F)c1O[C@@H](c1ccccc1)[C@@H]1CNCCO1 [Example 36, (S)-2-[(S)-(2,6-Difluoro-phenoxy)-phenyl-methyl]-morpholine] | 3.7 nM | 471 nM | – |
| CCOc1ccccc1OC(CC1CCCCC1)[C@@H]1CNCCO1 (stereo partly drawn) [Example 37, (S)-2-[(S)-2-Cyclohexyl-1-(2-ethoxy-phenoxy)-ethyl]-morpholine and (2S,3-R)-2-[2-Cyclohexyl-1-(2-ethoxy-phenoxy)-ethyl]-morpholine] | 12 nM | 163 nM | – |
| CCOc1ccccc1O[C@@H](CC(C)C)[C@@H]1CNCCO1 [Example 38, (S)-2-[(S)-1-(2-Ethoxy-phenoxy)-3-methyl-butyl]-morpholine] | 517 nM | 4100 nM | – |
| c1ccc([C@H](Oc2cccnc2)[C@@H]2CNCCO2)cc1 [Example 40, (S)-2-[(S)-Phenyl-(pyridin-3-yloxy)-methyl]-morpholine] | 317 nM | 828 nM | – |
| Cc1ccc(-c2ncccc2O[C@@H](c2ccccc2)[C@@H]2CNCCO2)cc1 [Example 42, (S)-2-[(S)-Phenyl-(2-p-tolyl-pyridin-3-yloxy)-methyl]-morpholine] | 68 nM | 4940 nM | – |
| Fc1ccc([C@H](Oc2ccccc2Br)[C@H]2CNCCO2)cc1 [Example 47, (R)-2-[(S)-(2-Bromo-phenoxy)-(4-fluoro-phenyl)-methyl]-morpholine] | 8.4 nM | 52 nM | – |
| c1ccc([C@H](Oc2ccc3occc3c2)[C@@H]2CNCCO2)cc1 [Example 48, (S)-2-[(S)-(Benzofuran-5-yloxy)-phenyl-methyl]-morpholine] | 31 nM | 10 nM | – |
| CCOc1ccccc1O[C@@H](C1CCCCC1)[C@@H]1CNCCO1 [Example 51, (S)-2-[(S)-Cyclohexyl-(2-ethoxy-phenoxy)-methyl]-morpholine] | 16 nM | ≥ 10000 nM | – |
| c1ccc([C@H](Oc2ccccc2N2CCNCC2)[C@@H]2CNCCO2)cc1 [Example 52, (S)-2-[(S)-Phenyl-(2-piperazin-1-yl-phenoxy)-methyl]-morpholine] | – | 1350 nM | 1620 nM |
| c1ccc([C@H](Oc2ccccc2C2CCCC2)[C@@H]2CNCCO2)cc1 [Example 55, (S)-2-[(S)-(2-Cyclopentyl-phenoxy)-phenyl-methyl]-morpholine] | 12 nM | 2240 nM | – |
| c1ccc([C@H](Oc2ccccc2C2CCCCC2)[C@@H]2CNCCO2)cc1 [Example 56, (S)-2-[(S)-(2-Cyclohexyl-phenoxy)-phenyl-methyl]-morpholine] | 41 nM | 2460 nM | – |
| CC(C)Cc1cc(F)ccc1O[C@@H](c1ccccc1)[C@@H]1CNCCO1 [Example 59, (S)-2-[(S)-(4-Fluoro-2-isobutyl-phenoxy)-phenyl-methyl]-morpholine] | 61 nM | 206 nM | – |
| Fc1cccc(Cl)c1O[C@@H](c1ccccc1)[C@@H]1CNCCO1 [Example 60] | 14 nM | 78 nM | – |
| Clc1cccc(Cl)c1O[C@@H](c1ccccc1)[C@@H]1CNCCO1 [Example 62, (S)-2-[(S)-(2,6-Dichloro-phenoxy)-phenyl-methyl]-morpholine] | 12 nM | 65 nM | – |
